How the values were obtained:
[1] = system: Enterococcus faecalis ATCC 19433; test: Well diffusion agar method, inhibition zone; format: cell-based; settings: compound at 50 μg/mL in DMSO, 37° C., 24 h; for zone of inhibition at 50 µg/mL: Enterococcus faecalis, ATCC19433, read-out: Inhibition zone, Ent. faecalis
Text: (§1) The ability to inhibit the growth of Gram-positive and Gram-negative bacteria, yeasts and filamentous fungi was observed using an overlay method (S. R. Connell, D. M. Tracz, K. H. Nierhaus, D. E. Taylor, Antimicrob. Agents Chemother. 47, 3675 (2003), incorporated herein by reference in its entirety).
(§2) The common pathogenic and food spoilage microorganisms were selected for their relevance in bakery products and other food: the gram-positive bacteria: Bacillus subtilits NRRL-B-4219, Staphylococcus aureus ATCC 6538, Enterococcus faecalis ATCC 19433; the gram negative bacteria: Escherichia coli ATCC 25922, Pseudomonas aeruginosa ATCC 9027, Proteus sp.; yeasts, such as Candida albicans ATCC 10231; and fungi: Aspergillus niger NRRL 2766 (equivalent to ATCC 16888), and Aspergillus flavus ATCC 16883. The bacteria were slanted on nutrient agar (Merck, Darmstadt, Germany), yeast was slanted and mentioned on Sabaroud's agar medium (Lab M., Bury, Lancashire, UK) and the fungi was slanted and mentioned on the potato Dextrose Agar medium (Lab M Limited, Bury, Lancashire, UK). Mueller-Hinton agar (Lab M., Bury, Lancashire, UK) following the manufacturer's instructions was used for the assay.
(§3) All compounds were dissolved in dimethyl sulfoxide (RFCL Limited, New Delhi, India) at 50 μg/mL concentration as shown in Table 4 in comparison with different standard antibiotics. Antibiotic discs of Streptomycin (S) (10 μg), Oxytetracycline (T) (30 μg), and Tetracyciline (TE) (30 μg) were used as positive controls for bacteria. Neomycin (N) (30 μg), was used for fungi.
(§4) The antibacterial screening was performed with the well diffusion agar method (S. T. Williams, M. Goodfellow, E. M. H. Wellington, J. C. Vickers, G. Alderson, P. H. A. Sneath, S. M. J. Sackins, A. M. Mortimer, J. Gen. Microbiol. 129, 1815(1983); and B. Bonev, J. Hooper, J. Parisot, J. Antimicrob. Chemother., 61, 1295(2008), each incorporated herein by reference in their entirety). The organisms were streaked in radial patterns on the agar plates. Plates were incubated under aerobic conditions at 37° C. and 28° C. for 24 h and 48 h for bacteria and fungi, respectively. All prepared solutions were treated under the same conditions under the same incubated plates. All tests were performed in triplicate. Plates were examined for evidence of antimicrobial activities, represented by a zone of inhibition of the microorganism's growth around the holes, and diameters of clear zones were expressed in millimeters (R. Cruickshank, J. P. Duguid, B. P. Marmion, R. H. A. Swain, The practice of medicinal microbiology. In Medical Microbiology, 12th ed.; Churchill Livingstone: Edinburgh, UK, Volume 11, pp. 196-202 (1975), incorporated herein by reference in its entirety).

[2] = system: Bacillus subtilits NRRL-B-4219; test: Well diffusion agar method, inhibition zone; format: cell-based; settings: compound at 50 μg/mL in DMSO, 37° C., 24 h; for zone of inhibition at 50 µg/mL: Bacillus, NRRLB4219
Text: as §1, §2, §3, §4

[3] = system: Staphylococcus aureus ATCC 6538; test: Well diffusion agar method, inhibition zone; format: cell-based; settings: compound at 50 μg/mL in DMSO, 37° C., 24 h; for zone of inhibition at 50 µg/mL: Staphylococcus aureus, ATCC6538, read-out: Inhibition zone, S. aureus
Text: as §1, §2, §3, §4

[4] = system: Candida albicans ATCC 10231; test: Well diffusion agar method, inhibition zone; format: cell-based; settings: compound at 50 μg/mL in DMSO, 28° C., 48 h; for zone of inhibition at 50 µg/mL: Candida albicans, ATCC10231
Text: as §1, §2, §3, §4

[5] = system: Aspergillus flavus ATCC 16883; test: Well diffusion agar method, inhibition zone; format: cell-based; settings: for zone of inhibition at 50 µg/mL: Aspergillus flavus, ATCC16883; for Antifungal activity (in words): A. flavus, in comparison with Neomycin
Text: as §1, §2, §3, §4

[6] = system: Escherichia coli ATCC 25922; test: Well diffusion agar method, inhibition zone; format: cell-based; settings: compound at 50 μg/mL in DMSO, 37° C., 24 h; for zone of inhibition at 50 µg/mL: Escherichia coli, ATCC25922, read-out: Inhibition zone, E. coli
Text: as §1, §2, §3, §4

Proteus sp. = test: Well diffusion agar method, inhibition zone; format: cell-based; settings: compound at 50 μg/mL in DMSO; 37° C., 24 h
Text: as §1, §2, §3, §4

[7] = system: Aspergillus niger NRRL 2766; test: Well diffusion agar method, inhibition zone; format: cell-based; settings: for zone of inhibition at 50 µg/mL / Antifungal effect (in words): Aspergillus niger; for zone of inhibition at 50 µg/mL: NRRL2766; for Antifungal effect (in words): in comparison with Neomycin
Text: as §1, §2, §3, §4

[8] = system: Pseudomonas aeruginosa ATCC 9027; test: Well diffusion agar method, inhibition zone; format: cell-based; settings: compound at 50 μg/mL in DMSO, 37° C., 24 h; for zone of inhibition at 50 µg/mL: Pseudomonas aeruginosa, ATCC9027, read-out: Inhibition zone, P. aeruginosa
Text: as §1, §2, §3, §4

[9] = compound at 50 μg/mL in DMSO, 28° C., 48 h

| Molecule | zone of inhibition at 50 µg/mL [1] [mm] | zone of inhibition at 50 µg/mL [2] [mm] | zone of inhibition at 50 µg/mL [3] [mm] | zone of inhibition at 50 µg/mL [4] [mm] | zone of inhibition at 50 µg/mL [5, 9] [mm] | zone of inhibition at 50 µg/mL [6] [mm] | zone of inhibition at 50 µg/mL (Proteus sp.) [mm] | zone of inhibition at 50 µg/mL [7, 9] [mm] | zone of inhibition at 50 µg/mL [8] [mm] | Antifungal activity (in words) [5] | Antifungal effect (in words) [7] | also measured |
| --- | --- | --- | --- | --- | --- | --- | --- | --- | --- | --- | --- | --- |
| CCOC1Oc2ccccc2C(=O)C1=NNc1ccccc1OC (centres unmarked) [Compound 6b, 2-ethoxy-3-(2-(2-methoxyphenyl)hydrazono)chroman-4-one] | 0 | 16 | 13 | 0 | 0 | 12 | 0 | 0 | 0 |  |  | melting point: 158 °C |
| CCOC1Oc2ccccc2C(=O)C1=NNc1ccc(Cl)cc1 (centres unmarked) [Compound 6c, 3-[(4-Chlorophenyl)hydrazono]-2-ethoxychroman-4-one] | 21 | 32 | 30 | 20 | 17 | 30 | 26 | 18 | 28 | moderate activity | more potent antifungal effect |  |
| Ethoxy-3-[(4-nitro-phenyl)-hydrazono]-chroman-one [Compound 6a] |  |  |  |  |  |  |  |  |  | moderate activity | more potent antifungal effect | Inhibition zone, Ent. faecalis [1]: 25 mm; Inhibition zone, B. subtilits [2]: 32 mm; Inhibition zone, S. aureus [3]: 28 mm; Inhibition zone, C. albicans [4]: 24 mm; Inhibition zone, A. flavus [5, 9]: 22 mm; Inhibition zone, E. coli [6]: 33 mm; Inhibition zone, Proteus sp. (Proteus sp.): 27 mm; Inhibition zone, A. niger [7, 9]: 22 mm; Inhibition zone, P. aeruginosa [8]: 30 mm |

Source: patent US10266510B2, “Antimicrobial and cytotoxic compounds and methods for treating cancer, a bacterial infection, and/or a fungal infection” (King Abdulaziz University, priority 2017, dated 2019)
